Publication PMC4965013, “Open Source Drug Discovery with the Malaria Box Compound Collection for Neglected Diseases and Beyond” (PLoS Pathogens, 2016)
Where two headings read alike, the source gives them in different places.

Experiments:
[1] = biological target: PfPMT (Plasmodium falciparum, UniProt Q8IDQ9); experiment: PfPMT gene replacement yeast growth
[2] = tested on: P. falciparum 3D7 gametocytes stage IV-V; experiment: Gametocyte pLDH assay UMIL; type: cell-based; details: Plasmodium falciparum, 3D7, 72 h
Procedure: Columns BO-BR: Taramelli group (Columns BO-BP data presented first in this paper, Columns BQ-BR are new data except as noted below). Gametocytocidal activity at UMIL. The Malaria Box compounds were used for primary screening against P. falciparum 3D7 gametocytes and subsequently for IC50 determination against Pf gametocytes obtained from the 3D7 and the 3D7elo1-pfs16-CBG99 transgenic strain [74], as previously described. The primary screening was performed on stage IV-V gametocytes from the 3D7 strain at 3.7 µM, in 96 well plates, using 100 nM epoxomicin and 1 µM DHA as positive controls and 0.5% DMSO as negative untreated control. […] The dose-response experiments were performed in 96 well plates using the 3D7 strain (pLDH, 72+72h, column BR in heat map) and the 3D7elo1-pfs16-CBG99 (luciferase assay, 72h, column BQ in heat map). Data analysis was performed as described.

[3] = tested on: HepG2-A16-CD81EGFP cells; details: 50uM; ref [58, 65]; cited from earlier work
[4] = tested on: P. falciparum NF54Pfs16 gametocytes stage IV-V; details: 5µM; ref [62]; cited from earlier work
[5] = tested on: T. cruzi Tulahuen; details: ref [84]; read-out: Trypanosoma cruzi Tulahuen intracellular amastigotes in MRC5 cell line EC50; cited from earlier work
[6] = tested on: HIV-1 JR-FL or HIV-1 NL4-3 pseudoviruses; experiment: HIV-1 pseudovirus infection luciferase; type: cell-based; details: Human immunodeficiency virus 1, HXB2 / NL43, read-out: HIV HXB2 % inhibition rep2 in U87 Luc
[7] = tested on: Schistosoma mansoni schistosomula (somules); experiment: S. mansoni somules phenotypic screen Caffrey
[8] = tested on: Mycobacterium tuberculosis mc26220 non-replicating; experiment: microbe, parasite or virus in culture; type: cell-based
[9] = tested on: P. falciparum in vitro translation; design: method as in ref [19] (a number printed in a supplementary file, which may have a reference list of its own: not looked up in the article's list); details: 1 µM; ref [19]; cited from earlier work
[10] = Mouse oral PK single dose; type: in vivo; details: male, CD-1, mouse, plasma, 140 umol/kg; 140 μmol/kg oral
Procedure: Columns GD-GJ: Wuxi Inc. data for MMV (data presented first in this paper) PK/DMPK Parameters: Fasted animals (Male CD-1 mouse, 7-9 weeks age, 30±10 g, n=3) obtained from an approved vendor (SLAC Laboratory Animal Co. Ltd., Shanghai, China or Sino-British SIPPR/BK Laboratory Animal Co. Ltd Shanghai, China) were administered with a single oral dose (140 μmol/kg) using DMSO: 1% HPMC (5:95) as a vehicle. Blood sampling was performed via the submandibular or saphenous vein (t=0.083, 0.25, 1, 2, 4, 6 and 9 h) and transferred into microcentrifuge tubes containing Sodium Heparin (1,000 IU/ml) as anti-coagulant placed on wet ice until processed for plasma by centrifugation at approximately 4°C, 3000×g for 15 min. Plasma samples were stored in polypropylene tubes, quick frozen over dry ice and kept at -70±10°C until LC/MS/MS analysis. LC/MS/MS methods for the quantitative determination compounds plasma levels were developed with an internal standard. […] (Phoenix WinNonlin, version 6.2.1, Pharsight, Mountain View, CA) and expressed as Cmax & AUC0-last. […] AUC0-last is the area under the curve expressed as >12 h*μM (Yes or No). Plasma protein binding assay (PPB) (CD-1 mouse and human) expressed as <95% bound, >95% bound, or >99% bound. Kinetic Solubility at pH 7.4 was determined by liquid chromatography/chemiluminescence nitrogen detection (LC/CLND) and was scored as greater than 20µM (Yes or No). hERG inhibition was measured at 11µM by the QPatch- HT system and is expressed as “Yes” if greater than 45% inhibited at 11µM and “No” if less than or equal to 45% inhibited at 11µM. As part of the Drug-Drug Interaction studies (DDI issues), 5 human and 1 mouse CYP isoforms (1A2, 2C9, 2C19, 2D6, 3A4-M, 3A4-T) were tested for inhibition assay at 10 µM. […] Otherwise DDI issues were scored as “No”. Positive and negative controls were run for each assay (Table 1).

[11] = tested on: Trypanosoma brucei rhodesiense STIB 900; details: ref [84]; cited from earlier work
[12] = tested on: Naegleria fowleri trophozoites; experiment: Naegleria fowleri CellTiter-Glo; type: cell-based; details: 1µM
How it was run: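 Growth inhibition of Naegleria fowleri trophozoites in vitro, read as cellular ATP by CellTiter-Glo 2.0 luminescence in lysed cells, output in relative light units.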

[13] = tested on: T. b. brucei Squib 427; details: ref [84]; read-out: Trypansoma brucei brucei Squib 427 IC50; cited from earlier work
[14] = tested on: U87-CD4-CCR5 or U87-CD4-CXCR4 cells; experiment: U87 cell viability MTT; type: cell-based
[15] = tested on: P. falciparum HB3; experiment: Stage-specificity / mitochondrial integrity image assay Ayong; type: cell-based; details: 10µM

Sequence of PfPMT (Q8IDQ9 whole entry): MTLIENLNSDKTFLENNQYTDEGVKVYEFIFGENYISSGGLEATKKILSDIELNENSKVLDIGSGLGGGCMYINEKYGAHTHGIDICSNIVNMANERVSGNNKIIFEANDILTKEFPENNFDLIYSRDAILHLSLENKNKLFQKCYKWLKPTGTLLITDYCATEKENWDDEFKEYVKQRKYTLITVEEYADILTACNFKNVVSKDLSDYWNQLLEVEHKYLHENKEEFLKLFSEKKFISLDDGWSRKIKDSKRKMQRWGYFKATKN

In the case of `CCN1CCN(c2cc(C)c3cc(NC(=O)c4ccc(OC)c(OC)c4)ccc3n2)CC1` [MMV019074], the inhibition at 100 µM ([1]; read-out: % Inhibition in PfPMT gene replacement yeast, no added choline) is reported as 0%, the inhibition at 100 µM ([1]; read-out: % Inhibition in PfPMT gene replacement yeast, with added choline) is reported as 0% and the inhibition at 3.7 µM ([2]; 3.7 µM, read-out: gametocytes 3D7, stage IV-V, pLDH, 72+72h, %inhibition) is reported as 13%. For the same compound, the inhibition at 3.7 µM ([2]; 3.7µM, read-out: gametocytes 3D7, stage IV-V, pLDH, 72h, %inhibition) was 10%, the “HepG2 toxicity rep 1” value [3] was 1.64% and the “HepG2 toxicity rep 2” value [3] was -0.0766%. The “gametocyte late stage (IV-V) luciferase % inhibition” value [4] was -9%, the EC50 [5] was 6.59 µM and the inhibition at 5 µM [6] was -69%. For the same compound, the “S. mansoni newly transformed schistosomula, visual tox scale, 0 = none, 4=most damaged” value ([7]; 24 h at 2.5µM) was 1, the “S. mansoni newly transformed schistosomula, visual tox scale, 0 = none, 4=most damaged” value ([7]; 72 h at 2.5µM) was 0 and the inhibition at 25 µM [8] was 13%. The “Translation Inhibitors (nl = 1.0, in vitro translation with P. falciparum lysate)” value [9] was 0.94, the AUC [10] was < 12 µM·h and the Cmax [10] was > 1000 nM. For the same compound, the EC50 [11] was 3.22 µM, the “Naegleria fowleri % growth” value [12] was 88% and the IC50 [13] was 4.78 µM. The “U87 % cell death rep3 (X4 P24 Washout expt)” value ([14]; 5uM) was -32%, the “U87 % Cell Death rep3 (R5 P24 Washout expt)” value ([14]; 5µM) was 7.48% and the “U87 % cell death rep3 (R5 P24 NO Washout expt)” value ([14]; 5µM) was 17%. The “U87 % cell death rep3 (X4 P24 NO Washout expt)” value ([14]; 5µM) was 3.26%, the “U87 Luc % cell death rep1” value ([14]; 5µM) was 0.063% and the “U87 Luc % cell death rep2” value ([14]; 5µM) was 10%. For the same compound, the “P. falciparum HB3 early ring (ER) stage activity” value [15] was “✖” and the “P. falciparum HB3 late ring (LR) stage activity” value [15] was “✖”.
